# Laboratory results: patent US20250282799A1, “SUBSTITUTED PYRIDO[4,3-d]PYRIMIDINES AS KRAS MODULATORS” (Alterome Therapeutics, Inc., priority 2023, published 2025)
# Test system: KRAS G12V dependent lung adenocarcinoma cell line, NCI-H441
# Assay: Cellular pERK (Thr202/Tyr204) FRET/HTRF assay
# Type: cell-based
# Conditions: Homo sapiens, NCI-H441, cellular pERK (Thr202/Tyr204) HTRF, NCI-H441 cells
# Summary of the method: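 Using a mix-and-read HTRF kit, phospho-ERK (Thr202/Tyr204) was detected in NCI-H441 lysates following 1 hr compound incubation at 37 °C, 5% CO2. Cells had been seeded overnight beforehand, and IC50 was derived by curve fitting.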
row,IC50 [µM],Compound
1,< 0.05,"[2H]C([2H])(Oc1nc(N2CCOC[C@H]3[C@H](F)[C@H]32)c2c(F)nc(-c3cc(N)cc4ccc(F)c(C#C)c34)c(F)c2n1)[C@@]12CCCN1C[C@H](F)C2 [Example 303, 4-(5,8-Difluoro-4-((1S,7S,8S)-8-fluoro-5-oxa-2-azabicyclo[5.1.0]octan-2-yl)-2-(((2R,7aS)-2-fluorotetrahydro-1H-pyrrolizin-7a(5H)-yl)methoxy-d2)pyrido[4,3-d]pyrimidin-7-yl)-5-ethynyl-6-fluoronaphthalen-2-amine]"
2,< 0.05,"[2H]C([2H])(Oc1nc(N2CCOC[C@H]3[C@H](Cl)[C@H]32)c2cnc(-c3cccc4ccc(F)c(C#C)c34)c(F)c2n1)[C@@]12CCCN1C[C@H](F)C2 [Example 290, (1S,7S,8S)-8-chloro-2-(7-(8-ethynyl-7-fluoronaphthalen-1-yl)-8-fluoro-2-(((2R,7aS)-2-fluorotetrahydro-1H-pyrrolizin-7a(5H)-yl)methoxy-d2)pyrido[4,3-d]pyrimidin-4-yl)-5-oxa-2-azabicyclo[5.1.0]octane]"
3,< 0.05,"[2H]C([2H])(Oc1nc(N2CCOC[C@H]3[C@H](F)[C@H]32)c2cnc(-c3cc(N)cc4ccc(C)c(C#C)c34)c(F)c2n1)[C@@]12CCCN1C[C@H](F)C2 [Example 331, 5-Ethynyl-4-(8-fluoro-4-((1S,7S,8S)-8-fluoro-5-oxa-2-azabicyclo[5.1.0]octan-2-yl)-2-(((2R,7aS)-2-fluorotetrahydro-1H-pyrrolizin-7a(5H)-yl)methoxy-d2)pyrido[4,3-d]pyrimidin-7-yl)-6-methylnaphthalen-2-amine]"

# Continued, molecule first:
row,Compound,IC50 [µM]
1,"C#Cc1c(F)ccc2cc(N)cc(-c3ncc4c(N5CCOC[C@@H]6[C@@H](Cl)[C@@H]65)nc(OC[C@@H]5CCCN5C)nc4c3F)c12 [Example 301, 4-(4-((1R,7R,8R)-8-chloro-5-oxa-2-azabicyclo[5.1.0]octan-2-yl)-8-fluoro-2-(((S)-1-methylpyrrolidin-2-yl)methoxy)pyrido[4,3-d]pyrimidin-7-yl)-5-ethynyl-6-fluoronaphthalen-2-amine]",0.05 to 0.5
2,"[2H]C([2H])(Oc1nc(N2CCCC[C@H]3[C@H](F)[C@H]32)c2cnc(-c3cc(N)cc4ccc(Cl)c(C#C)c34)c(F)c2n1)[C@@]12CCCN1[C@H](C)[C@H](F)C2 [Example 416, 6-Chloro-5-ethynyl-4-(8-fluoro-2-(((2R,3R,7aS)-2-fluoro-3-methyltetrahydro-1H-pyrrolizin-7a(5H)-yl)methoxy-d2)-4-((1S,7R,8S)-8-fluoro-2-azabicyclo[5.1.0]octan-2-yl)pyrido[4,3-d]pyrimidin-7-yl)naphthalen-2-amine]",< 0.05
3,"C#Cc1c(F)ccc2cc(O)cc(-c3ncc4c(N5CCCO[C@H]6C[C@H]65)nc(OC[C@@]5(C)CCCN5)nc4c3F)c12 [Example 281, 4-(4-((1S,7R)-2-oxa-6-azabicyclo[5.1.0]octan-6-yl)-8-fluoro-2-(((R)-2-methylpyrrolidin-2-yl)methoxy)pyrido[4,3-d]pyrimidin-7-yl)-5-ethynyl-6-fluoronaphthalen-2-ol]",0.5 to 10
4,"[2H]C([2H])(Oc1nc(N2CCC(=O)C[C@H]3[C@H](F)[C@H]32)c2cnc(-c3cc(N)cc4cc(F)c(F)c(C#C)c34)c(F)c2n1)[C@@]12CCCN1C[C@H](F)C2 [Example 195, (1S,7R,8S)-2-(7-(3-amino-8-ethynyl-6,7-difluoronaphthalen-1-yl)-8-fluoro-2-(((2R,7aS)-2-fluorotetrahydro-1H-pyrrolizin-7a(5H)-yl)methoxy-d2)pyrido[4,3-d]pyrimidin-4-yl)-8-fluoro-2-azabicyclo[5.1.0]octan-5-one]",< 0.05
5,"[2H]C([2H])(F)Oc1c(F)ccc2cccc(-c3ncc4c(N5CCOC[C@H]6[C@H](F)[C@H]65)nc(OC[C@]56C/C(=C\F)CN5CCC65CC5)nc4c3F)c12 [Example 385, (1S,7S,8S)-8-fluoro-2-(8-fluoro-7-(7-fluoro-8-(fluoromethoxy-d2)naphthalen-1-yl)-2-(((R,E)-6′-(fluoromethylene)tetrahydrospiro[cyclopropane-1,1′-pyrrolizin]-7a′(5′H)-yl)methoxy)pyrido[4,3-d]pyrimidin-4-yl)-5-oxa-2-azabicyclo[5.1.0]octane]",< 0.05
6,"Nc1cc(Cl)c(C(F)(F)F)c(-c2ncc3c(N4CCCC[C@H]5[C@H](F)[C@H]54)nc(OC[C@@]45CCCN4C/C(=C/F)C5)nc3c2F)c1 [Example 371, 3-chloro-5-(8-fluoro-4-((1S,7R,8S)-8-fluoro-2-azabicyclo[5.1.0]octan-2-yl)-2-(((S,E)-2-(fluoromethylene)tetrahydro-1H-pyrrolizin-7a(5H)-yl)methoxy)pyrido[4,3-d]pyrimidin-7-yl)-4-(trifluoromethyl)aniline]",< 0.05
7,"[2H]C([2H])(Oc1nc(N2CCCC[C@H]3[C@H](F)[C@H]32)c2cnc(-c3cccc4c(F)c(F)c(F)c(C#C)c34)c(F)c2n1)[C@@]12CCCN1C[C@H](F)C2 [Example 111, 7-(8-ethynyl-5,6,7-trifluoronaphthalen-1-yl)-8-fluoro-4-((1S,7R,8S)-8-fluoro-2-azabicyclo[5.1.0]octan-2-yl)-2-(((2R,7aS)-2-fluorotetrahydro-1H-pyrrolizin-7a(5H)-yl)methoxy-d2)pyrido[4,3-d]pyrimidine]",0.5 to 10

# Same assay, conditions: Homo sapiens, NCI-H441, cellular pERK HTRF, NCI-H441 (KRAS G12V) cells
row,IC50 [µM],Compound
1,< 0.05,"[2H]C([2H])(Oc1nc(N2CCOC[C@H]3[C@H](F)[C@H]32)c2cnc(-c3cc(N)cc4ccc(F)c(C#C)c34)c(C)c2n1)[C@@]12CCCN1CC(=C)C2 [Example 436, 5-Ethynyl-6-fluoro-4-(4-((1S,7S,8S)-8-fluoro-5-oxa-2-azabicyclo[5.1.0]octan-2-yl)-8-methyl-2-(((S)-2-methylenetetrahydro-1H-pyrrolizin-7a(5H)-yl)methoxy-d2)pyrido[4,3-d]pyrimidin-7-yl)naphthalen-2-amine]"

# Same assay, conditions: Homo sapiens, NCI-H441, pERK HTRF, NCI-H441 cells (KRAS G12V)
row,IC50 [µM],Compound
1,< 0.05,"[2H]C([2H])([2H])Oc1c(C#N)ccc2cc(N)cc(-c3ncc4c(N5CCOC[C@H]6[C@H](F)[C@H]65)nc(OC([2H])([2H])[C@@]56CCCN5C[C@H](F)C6)nc4c3F)c12 [Example 81, 6-Amino-8-(8-fluoro-4-((1S,7S,8S)-8-fluoro-5-oxa-2-azabicyclo[5.1.0]octan-2-yl)-2-(((2R,7aS)-2-fluorotetrahydro-1H-pyrrolizin-7a(5H)-yl)methoxy-d2)pyrido[4,3-d]pyrimidin-7-yl)-1-(methoxy-d3)-2-naphthonitrile]"
2,0.5 to 10,"[2H]C([2H])(Oc1nc(N2CCCC[C@@H]3C[C@@H]32)c2cnc(-c3cc(N)cc4cc(F)c(F)c(C#C)c34)c(F)c2n1)[C@@]12CCCN1C[C@H](F)C2 [Example 7, 4-(4-((1S,7R)-2-Azabicyclo[5.1.0]octan-2-yl)-8-fluoro-2-(((2R,7aS)-2-fluorotetrahydro-1H-pyrrolizin-7a(5H)-yl)methoxy-d2)pyrido[4,3-d]pyrimidin-7-yl)-5-ethynyl-6,7-difluoronaphthalen-2-amine]"

# Same assay, conditions: cellular pERK (Thr202/Tyr204) HTRF, NCI-H441 cells
row,IC50 [µM],Compound
1,< 0.05,"[2H]C([2H])(Oc1nc(N2CCOC[C@H]3[C@H](F)[C@H]32)c2cc(F)c(-c3cc(N)cc4ccc(F)c(C#C)c34)c(F)c2n1)[C@@]12CCCN1C[C@H](F)C2 [Example 355, 4-(6,8-difluoro-4-((1S,7S,8S)-8-fluoro-5-oxa-2-azabicyclo[5.1.0]octan-2-yl)-2-(((2R,7aS)-2-fluorotetrahydro-1H-pyrrolizin-7a(5H)-yl)methoxy-d2)quinazolin-7-yl)-5-ethynyl-6-fluoronaphthalen-2-amine]"
2,0.5 to 10,"[2H]C([2H])(Oc1nc(N2CCOC[C@@H]3[C@@H](Cl)[C@@H]32)c2cc(C(F)(F)F)c(-c3ccc(F)c4sc(N)c(C#N)c34)c(F)c2n1)[C@@]12CCCN1C[C@H](F)C2 (atropisomer, axis not shown; (aS)) [Example 421, 2-amino-4-((R)-4-((1R,7R,8R)-8-chloro-5-oxa-2-azabicyclo[5.1.0]octan-2-yl)-8-fluoro-2-(((2R,7aS)-2-fluorotetrahydro-1H-pyrrolizin-7a(5H)-yl)methoxy-d2)-6-(trifluoromethyl)quinazolin-7-yl)-7-fluorobenzo[b]thiophene-3-carbonitrile]"
3,< 0.05,"[2H]C([2H])(Oc1nc(N2CCOC[C@H]3[C@H](F)[C@H]32)c2cc(Cl)c(-c3cc(N)cc4ccc(F)c(C#C)c34)c(F)c2n1)[C@@]12CCCN1C[C@H](F)C2 [Example 354, 4-(6-chloro-8-fluoro-4-((1S,7S,8S)-8-fluoro-5-oxa-2-azabicyclo[5.1.0]octan-2-yl)-2-(((2R,7aS)-2-fluorotetrahydro-1H-pyrrolizin-7a(5H)-yl)methoxy-d2)quinazolin-7-yl)-5-ethynyl-6-fluoronaphthalen-2-amine]"
4,0.5 to 10,"[2H]C([2H])(Oc1nc(N2CCOC[C@H]3[C@H](F)[C@H]32)c2cc(F)c(-c3ccc(F)c4sc(N)c(C#N)c34)c(F)c2n1)[C@@]12CCCN1C[C@H](F)C2 (atropisomer, axis not shown; (aS)) [Example 356, 2-amino-4-((R)-6,8-difluoro-4-((1S,7S,8S)-8-fluoro-5-oxa-2-azabicyclo[5.1.0]octan-2-yl)-2-(((2R,7aS)-2-fluorotetrahydro-1H-pyrrolizin-7a(5H)-yl)methoxy-d2)quinazolin-7-yl)-7-fluorobenzo[b]thiophene-3-carbonitrile]"

# Same assay, conditions: cellular pERK HTRF, NCI-H441 (KRAS G12V) cells
row,IC50 [µM],Compound
1,0.5 to 10,"[2H]C([2H])(Oc1nc(N2CCOC[C@H]3[C@H](F)[C@H]32)c2cc(F)c(-c3cc(N)cc4ccc(F)c(C#C)c34)c(C)c2n1)[C@@]12CCCN1C[C@H](F)C2 (atropisomer, axis not shown; (aS)) [Example 434, 5-Ethynyl-6-fluoro-4-((R)-6-fluoro-4-((1S,7S,8S)-8-fluoro-5-oxa-2-azabicyclo[5.1.0]octan-2-yl)-2-(((2R,7aS)-2-fluorotetrahydro-1H-pyrrolizin-7a(5H)-yl)methoxy-d2)-8-methylquinazolin-7-yl)naphthalen-2-amine]"
